{"source": "patent US4389394A", "about": "“Methods for reducing dental caries” (Talres Development (N.A.) N.V., priority 1978, dated 1983)", "key": {"[1]": {"experiment": "Acute oral toxicity in the rat", "conditions": "in vivo, per os, maximum dose practically possible", "from_the_text": "For example, in the rat the compound no."}, "S. mutans [2]": {"system": "S. mutans", "experiment": "Scanning electron microscopy of glass with adherent cells", "format": "cell-based, Streptococcus mutans", "conditions": "sucrose medium; qualitative"}, "S. mutans [3]": {"system": "S. mutans", "experiment": "(C) Further tests on pH reduction", "format": "cell-based, Streptococcus mutans", "conditions": "for effect on acid production / pH: statement in words, pooled 2, 3 and 4 hours", "protocol": "(§1) Plain aqueous solutions were used and also solutions containing amino acids (protein hydrolysate) 1% w/v to approximate the buffering effect of natural saliva. Control experiments were effected using no saccharide in order to illustrate the endogenous metabolism of the organism. Each experiment was quadruplicated and was run at 37° C. The pH was measured at 0, 0.5, 1, 1.5,2, 3 and 4 hours.\nTwelve sets of tests were carried out in the same way as described above at (A) but using solutions which were 0.055 molar in the respective chlorodeoxy derivative.\nSolutions of the following were employed:\n(i) Saline, negative control for endogenous metabolism\n(ii) Sucrose, positive control\n(iii) 6,1',6'-trichloro-6,1',6'-trideoxysucrose, compound no. 7.\n(iv) Compound no. 7 plus sucrose.\n(v) 1',6'-dichloro-1',6'-dideoxysucrose, compound no. 4\n(vi) Compound no. 4 plus sucrose\n(vii) 4,1',6'-trichloro-4,1',6'-trideoxygalactosucrose, Compound no. 5.\n(viii) Compound no. 5 plus sucrose\n(ix) 4,6,6'-trichloro-4,6,6'-trideoxygalactosucrose, Compound no. 6\n(x) Compound no. 6 plus sucrose\n(xi) 1'-chloro-1'-deoxysucrose, compound no. 1\n(xii) Compound no. 1 plus sucrose\nThe acid production was monitored as before."}, "[4]": {"conditions": "West German Offenlegungsschrift No. 2700036; cited from earlier work"}, "[5]": {"system": "germ-free Liverpool hooded rats inoculated orally with Streptococcus mutans NCT 10823", "experiment": "(E) Gnotobiotic rat caries model", "format": "in vivo", "conditions": "21 days; diet 33% skim milk, 67% carbohydrate; S. mutans NCT 10823; statement in words", "protocol": "Studies were carried out on the effect of chlorodeoxysucroses on cariogenic food products, using 4,1',6'-trichloro-4,1',6'-trideoxygalactosucrose as the chlorodeoxysucrose. Cariogenicity was examined using the gnotobiotic rat caries model (see for example Drucker and Green, Arch. Oral Biol. Vol 23 pp 183-187).\nThe experiment involved the use of germ-free Liverpool hooded rats inoculated orally with Streptococcus mutans NCT 10823 (a caries-producing organism). The rats were fed a diet consisting essentially of 33% by weight skim milk and 67% by weight carbohydrate. The carbohydrate consisted of (i) starch, or (ii) sucrose, or (iii) starch together with sufficient of the chlorodeoxysucrose to give a sweetness as perceived by a human of the same order as that of the sucrose. After 21 days, the rats were sacrificed and the lower jaw lesions were counted to give a caries score for each rat (see Konig, Marthaler and Muhlemann, Dt. Zahn-Mund-u. Kieferheilk Vol. 29, 99-127)."}, "S. mutans [6]": {"system": "S. mutans", "experiment": "(B) Adherence to teeth: deposition of suspended cells on to glass (Magiscan image analyser)", "format": "cell-based, Streptococcus mutans", "from_the_text": "(§2) The extent to which cells of S. mutans adhere to teeth was investigated using a recognized model system. Solutions of the same substances as in (A) were made up, and the degree of deposition of suspended cells on to glass was studied using a \"Magiscan\" image analyser (Talyer et al., 1978 Praktischen Metallographie, Sonderbande 8: 433-442).\nEach reading is the mean of 40 determinations."}, "[7]": {"system": "Streptococcus mutans NCTC 10832", "experiment": "(A) Effect on reduction of pH by Streptococcus mutans", "format": "cell-based", "conditions": "for pH: no amino acids, 0.05 molar each saccharide, 37° C", "from_the_text": "Mouth flora such as S. mutans cause dental caries by producing acid which erodes the tooth enamel. The cells exude a polysaccharide which firmly adheres them to the tooth surfaces as plaque, thus enhancing the local erosion by the acid. The effect of chlorodeoxysucroses on acid production by S. mutans in sucrose solutions was studied in comparison with the effect produced by xylitol, an agent proposed as a caries preventative.\nas §1"}, "S. mutans [8]": {"system": "S. mutans", "experiment": "(D) Further tests on adherence to teeth", "format": "cell-based, Streptococcus mutans", "conditions": "glass slide; 0.055 molar; Duncan procedure", "protocol": "as §2\nWhile recording the pH during the tests of (C), the adherence was monitored in the same way as in (B). The percentage coverage of a glass slide was determined at 0.5 and 4 hours for each solution, and the results treated by the Duncan procedure."}, "[9]": {"conditions": "no amino acid, mean of 40 determinations"}}, "note": "Entries after “also recorded” stand apart in the source; their conditions may differ."}
{"compound": "OC[C@H]1O[C@H](O[C@]2(CCl)O[C@H](CCl)[C@@H](O)[C@@H]2O)[C@H](O)[C@@H](O)[C@H]1Cl", "note": "[Compound no. 5, 4-chloro-4-deoxy-α-D-galactopyranosyl-1,6-dichloro-1,6-dideoxy-β-D-fructofuranoside]", "values": [{"measurement": "LD50", "setting": "[1]", "value": "> 16000", "unit": "mg/kg"}, {"measurement": "extracellular coating and size of clumps of adherent cells", "setting": "S. mutans [2]", "value": "found to reduce the extracellular coating and the size of the clumps"}, {"measurement": "Mean pH", "setting": "S. mutans [3]; 0.055 molar chlorodeoxy derivative, pooled data for 2, 3 and 4 hours, Duncan procedure", "value": 6.82}, {"measurement": "effect on acid production / pH", "setting": "S. mutans [3]", "value": "give a better result than the negative control, saline"}, {"measurement": "effect on acid production / pH", "setting": "S. mutans [3]; listed as (vii)", "value": "one pH unit less than that of solution (ii)"}, {"measurement": "effect on acid production / pH", "setting": "S. mutans [3]; listed as no. 5", "value": "especially effective"}, {"measurement": "sweetness relative to sucrose", "setting": "[4]", "value": "many times sweeter than sucrose"}, {"measurement": "cariogenicity (caries score)", "setting": "[5]", "value": "appeared to be decreasing the cariogenicity of the starch"}, {"measurement": "degree of adhesion", "setting": "S. mutans [6]; Mann Whitney U-test, statement in words, listed as TGS", "value": "reduces the degree of adhesion significantly; also recorded: the reduction is greater than that of xylitol"}, {"measurement": "Coverage (%) after 0.5 h", "setting": "S. mutans [6]; [9]", "value": 30.42, "unit": "%"}, {"measurement": "Coverage (%) after 4.0 h", "setting": "S. mutans [6]; [9]", "value": 64.81, "unit": "%"}, {"measurement": "pH", "setting": "[7]; 0 h", "value": 5.88}, {"measurement": "pH", "setting": "[7]; 0.5 h", "value": 5.67}, {"measurement": "pH", "setting": "[7]; 1.0 h", "value": 5.69}, {"measurement": "pH", "setting": "[7]; 1.5 h", "value": 5.69}, {"measurement": "pH", "setting": "[7]; 2.0 h", "value": 5.61}, {"measurement": "pH", "setting": "[7]; 3.0 h", "value": 5.67}, {"measurement": "pH", "setting": "[7]; 4.0 h", "value": 5.63}, {"measurement": "Mean pH", "setting": "[7]; Duncan Procedure sub-sets, amino acids where named in the solution", "value": 5.64}, {"measurement": "effect on acid production", "setting": "[7]; statement in words, listed as TGS", "value": "always had a favourable effect which was statistically significant; also recorded: reduced the amount of acid produced; also recorded: on its own had a favourable effect against the endogenous metabolism of the micro-organism"}, {"measurement": "% coverage after 0.5 hours", "setting": "S. mutans [8]", "value": 41.4, "unit": "%"}, {"measurement": "% coverage after 4 hours", "setting": "S. mutans [8]", "value": 58.4, "unit": "%"}]}
